In one test the test system is SK-Mel-28 cells. Put plainly: Interaction with cell division, mitotic index. The format is cell-based, human. As to conditions: four hours (vehicle 1.7). How it is done: The mitotic index was determined after incubation of SK-Mel-28 cells with vehicle, the compound (I) of example 3 and nocodazole for four hours [essentially as described by C. L. Rieder et al.: Current Biology 10(2000) 1067-1070].

In the next test the test system is SK-MEL 28 cells. Briefly: Cell death by apoptosis, Annexin V staining, SK-MEL 28. The format is cell-based, human. As to conditions: 500 ng/ml. On the procedure: (§1) Jurkat and SK-MEL 28 cells were incubated with the compound (I) from example 3 for 6, 24 and 48 hours, after which the percentage of apoptotic cells were determined by Annexin V staining.
(§2) The numbers depicted in the Table represent the percentage of Annexin-V positive cells.

A further test deals with Jurkat cells. Briefly: Cell death by apoptosis, Annexin V staining, Jurkat. As to conditions: for percentage of Annexin-V positive cells: Jurkat, 500 ng/ml. In kind it is cell-based, human. On the procedure: as §1, §2
In a further test the target is T1, insulin receptor (IR) (Homo sapiens, UniProt P06213).
T1 construct: endogenous in cells; host or cells: SK-MEL-28
T1 sequence (P06213 28-1382): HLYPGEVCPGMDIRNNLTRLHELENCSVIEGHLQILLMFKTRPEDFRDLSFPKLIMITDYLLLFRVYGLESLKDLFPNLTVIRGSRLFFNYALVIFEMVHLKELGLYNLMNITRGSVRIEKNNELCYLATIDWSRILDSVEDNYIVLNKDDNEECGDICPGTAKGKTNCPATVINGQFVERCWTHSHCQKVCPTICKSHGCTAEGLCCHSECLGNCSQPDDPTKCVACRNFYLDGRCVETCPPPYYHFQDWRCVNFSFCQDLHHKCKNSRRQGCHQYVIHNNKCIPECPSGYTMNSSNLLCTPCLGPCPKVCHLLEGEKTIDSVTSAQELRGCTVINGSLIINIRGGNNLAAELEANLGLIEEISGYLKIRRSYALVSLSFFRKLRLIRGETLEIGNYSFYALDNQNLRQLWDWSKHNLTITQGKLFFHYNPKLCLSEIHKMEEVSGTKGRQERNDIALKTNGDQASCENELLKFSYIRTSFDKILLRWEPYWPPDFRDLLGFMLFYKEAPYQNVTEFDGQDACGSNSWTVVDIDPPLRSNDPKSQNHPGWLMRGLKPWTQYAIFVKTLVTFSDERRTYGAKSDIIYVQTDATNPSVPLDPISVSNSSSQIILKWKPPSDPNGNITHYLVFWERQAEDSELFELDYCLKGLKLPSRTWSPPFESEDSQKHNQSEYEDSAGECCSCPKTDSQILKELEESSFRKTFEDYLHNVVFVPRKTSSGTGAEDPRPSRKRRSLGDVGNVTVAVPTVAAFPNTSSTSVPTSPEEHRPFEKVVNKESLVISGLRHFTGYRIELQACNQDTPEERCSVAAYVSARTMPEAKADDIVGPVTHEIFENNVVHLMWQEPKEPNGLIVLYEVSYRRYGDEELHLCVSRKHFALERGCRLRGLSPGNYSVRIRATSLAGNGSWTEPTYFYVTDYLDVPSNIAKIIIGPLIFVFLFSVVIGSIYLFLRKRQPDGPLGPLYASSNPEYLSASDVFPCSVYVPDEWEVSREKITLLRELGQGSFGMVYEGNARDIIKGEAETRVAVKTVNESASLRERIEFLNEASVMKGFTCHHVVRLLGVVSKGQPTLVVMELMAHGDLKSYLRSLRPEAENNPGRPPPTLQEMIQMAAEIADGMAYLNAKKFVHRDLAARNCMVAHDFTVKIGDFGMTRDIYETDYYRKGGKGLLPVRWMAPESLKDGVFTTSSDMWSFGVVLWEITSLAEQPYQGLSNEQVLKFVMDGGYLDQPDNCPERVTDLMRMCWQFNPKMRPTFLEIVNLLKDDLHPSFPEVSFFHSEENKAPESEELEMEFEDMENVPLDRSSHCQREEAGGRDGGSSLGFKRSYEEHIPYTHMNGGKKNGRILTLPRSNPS
Put plainly: Inhibition of phosphorylation of insulin receptor (IR) in SK-MEL-28. In kind it is cell-based. Particulars: 1 microgram/ml, 2 hours. How it is done: SK-MEL-28 cells (density 60000/cm^2) were grown in 100 mm diameter dishes containing 10 ml RPMI 1640 supplemented with 10% fetal bovine serum (FBS) for 24 hours. After 24 hours fresh medium supplemented with 10% FBS was added together with or without 1 microgram/ml of compound 33. The dishes were incubated at 37° C. for 2 hours, after which the cells were lyzed and subjected to immunoprecipitation using 2 microliter of an anti-IR monoclonal antibody (18-44, ABCAM) and 20 microliter of agarose-conjugated protein G. Antibody-antigen complexes were allowed to form for 4 hours at 4° C. and after that collected by centrifugation at 4° C. for 1 minute at 5000 rpm. Immunoprecipitated complexes were separated by electrophoresis on an 8% polyacrylamide gel and electroblotted onto a nitrocellulose membrane (Amersham Bioscience). The efficiency of the immunoprecipitation was determined by using a polyclonal antibody against the beta-subunit of the insulin receptor (C-19; Santa Cruz Biotech.). Detection of the tyrosine phosphorylation of the insulin receptor was performed by incubation of the nitrocellulose membranes with an anti-phosphotyrosine antibody (4G10, Upstate Biotechnology Ltd., UK). […]

A further test has as its target T2, IGF-1R (Homo sapiens, UniProt P08069).
T2 construct: endogenous in cells; host or cells: SK-MEL-28
Put plainly: Inhibition of phosphorylation of IGF-1R in SK-MEL-28. In kind it is cell-based. Particulars: compound 1000 ng/ml for 2 hours, IGF-1 20 ng/ml for 5 minutes; IGF-1 alone = 100. How it is done: IGF-1R: Assay without treatment with compounds (I). (Essentially as described by M. Rubini et al. Exp. Cell Res. 230(1997) 284-292).
SK-MEL-28 cells (density 60000/cm^2; 100 mm diameter dish containing 10 ml RPMI 1640) were starved for 24 hours at 37° C. and thereafter treated for 5 minutes at 37° C. with IGF-1 (200 ng, Sigma). Untreated cells served as control. The cells were lyzed and subjected to immunoprecipitation using a specific antibody against IGF-1R (alfa-IR3, Oncogene Science). Immunoprecipitates were separated by polyacrylamide gel electrophoresis and transferred to nitrocellulose membranes (Amersham Bioscience). The immunoprecipitated IGF-1 receptor was located on the nitrocellulose membrane using an antibody against the alfa-subunit of the IGF-1R (N-20:sc-712, Santa Cruz Biotech.). Detection of the tyrosine phosphorylation of the IGF-1 receptor was performed by incubation of the nitrocellulose membranes with an anti-phosphotyrosine antibody (4G10, Upstate Biotechnology Ltd., UK). To reveal the anti-IGF-1R rabbit polyclonal antibody and the anti-phosphotyrosine mouse monoclonal antibody, the membranes were incubated with anti-rabbit IgG and anti-mouse IgG antibodies coupled to HRP, respectively, and visualized by the use of an enhanced chemiluminescence (ECL) detection system (Pierce). […]

T2 sequence (P08069 31-1367): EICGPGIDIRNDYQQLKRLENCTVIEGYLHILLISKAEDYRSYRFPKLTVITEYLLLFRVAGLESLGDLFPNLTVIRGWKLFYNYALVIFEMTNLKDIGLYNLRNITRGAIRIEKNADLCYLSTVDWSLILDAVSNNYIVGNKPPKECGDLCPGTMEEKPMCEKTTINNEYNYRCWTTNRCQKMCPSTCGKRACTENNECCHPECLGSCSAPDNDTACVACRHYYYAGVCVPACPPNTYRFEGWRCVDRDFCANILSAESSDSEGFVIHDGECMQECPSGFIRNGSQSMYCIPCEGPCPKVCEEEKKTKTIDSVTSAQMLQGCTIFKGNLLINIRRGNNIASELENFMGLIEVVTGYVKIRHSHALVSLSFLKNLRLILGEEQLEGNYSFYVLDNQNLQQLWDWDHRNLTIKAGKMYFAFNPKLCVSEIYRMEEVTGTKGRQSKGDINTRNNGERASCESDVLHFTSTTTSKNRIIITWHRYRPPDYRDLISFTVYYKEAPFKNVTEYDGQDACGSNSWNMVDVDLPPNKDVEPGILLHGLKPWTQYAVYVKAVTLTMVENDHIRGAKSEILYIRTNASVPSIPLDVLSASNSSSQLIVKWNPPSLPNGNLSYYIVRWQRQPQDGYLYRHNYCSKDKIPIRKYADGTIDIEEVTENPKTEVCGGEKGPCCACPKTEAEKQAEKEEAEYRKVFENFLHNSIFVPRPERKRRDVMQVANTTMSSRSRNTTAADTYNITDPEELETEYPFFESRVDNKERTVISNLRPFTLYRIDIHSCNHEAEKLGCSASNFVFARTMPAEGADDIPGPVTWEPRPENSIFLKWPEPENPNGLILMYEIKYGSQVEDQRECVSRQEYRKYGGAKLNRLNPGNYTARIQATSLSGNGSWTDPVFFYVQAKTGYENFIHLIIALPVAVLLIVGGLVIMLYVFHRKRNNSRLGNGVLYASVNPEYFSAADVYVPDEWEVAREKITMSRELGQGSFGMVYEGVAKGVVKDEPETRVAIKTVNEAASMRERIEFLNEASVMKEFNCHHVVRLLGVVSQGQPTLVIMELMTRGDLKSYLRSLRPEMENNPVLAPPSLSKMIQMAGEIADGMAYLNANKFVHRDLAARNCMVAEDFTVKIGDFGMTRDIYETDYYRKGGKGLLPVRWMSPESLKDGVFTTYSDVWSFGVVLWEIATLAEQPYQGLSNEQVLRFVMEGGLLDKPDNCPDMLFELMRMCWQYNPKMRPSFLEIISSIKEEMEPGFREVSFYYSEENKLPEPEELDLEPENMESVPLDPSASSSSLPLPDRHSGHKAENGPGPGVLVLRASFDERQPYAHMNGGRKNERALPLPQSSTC

Consider `COc1ccc2c(c1)CCN(C(C)=O)C2c1cc(OC)c(OC)c(OC)c1` (racemic) [Example 3, 1-(3,4,5-trimethoxyphenyl)-2-acetyl-6-methoxy-1,2,3,4-tetrahydroisoquinoline], for which the “mitotic index SK-Mel-28” value in the test with SK-Mel-28 cells (300 ng/ml) amounted to 5. Also, the “percentage of Annexin-V positive cells” value in the test on SK-MEL 28 cells (SK-Mel-28, 6 hours) turned out to be 8%; in the test on SK-MEL 28 cells (SK-Mel-28, 24 hours), 16%; with SK-MEL 28 cells (SK-Mel-28, 48 hours), 70%; with Jurkat cells (6 hours) it was 8%; in the test with Jurkat cells (24 hours) it was 89%. The induction of apoptosis entry with Jurkat cells (tested cell lines (Jurkat and SK-MEL 28), slower kinetics than SuperFasL) is “induces apoptosis”.

`COc1ccc2c(c1)CCN(C#N)C2c1cc(OC)c(OC)c(OC)c1` (single isomer, unassigned; (-)) [Example 33, (−)-1-(3,4,5-trimethoxyphenyl)-2-cyano-6-methoxy-1,2,3,4-tetrahydroisoquinoline]: the “difference in phosphorylation of the insulin receptor versus untreated cells” value on insulin receptor (IR) is recorded as “No difference”.

As to `COc1ccc2c(c1)CCCN(C)C2c1cc(OC)c(OC)c(OC)c1.Cl` (stereo not shown) [Example 31, 1-(3,4,5-trimethoxyphenyl)-2-methyl-7-methoxy-2,3,4,5-tetrahydro-1H-2-bezazepine hydrochloride], on IGF-1R, the “% phosphorylation of IGF-1R in SK-MEL-28 cells” value stood at 10%.

Consider `COC(=O)Nc1nc2ccc(C(=O)c3cccs3)cc2[nH]1` [Nocodazole, reference compound], for which the “mitotic index SK-Mel-28” value with SK-Mel-28 cells (10 μM) stood at 2.9.

Values taken from patent US7875631B2, “Tetrahydroisoquinoline-and tetrahydrobenzazepine derivatives as igf-1 r inhibitors” (Analytecon S.A., priority 2004, dated 2011).
